# According to patent EP0141884A1, “Novel phenylpiperazine derivatives, process for preparing them and therapeutic compositions containing them” (JUSTE, S.A. QUIMICO-FARMACEUTICA, priority 1983, dated 1985):
# Tested on: female Swiss mice
# Assay: Analgesic activity, writhing test (2-phenyl-1,4-benzoquinone as nociceptive agent)
# Assay type: in vivo
# Settings: Mus musculus, po, 1 h, Table 1, oral route one hour before i.p. 0.02% 2-phenyl 1-4 benzoquinone, dose reducing writhes by 50%
# Description: The studies of analgesic activity for these compounds have been carried out over 2,178 mice by using the "writhing test" method. 2-Phenylbenzoquinone was used as nociceptive agent and the material under test was administered by the oral route. In all the cases the ED50, ED16 and ED84 (minimum dose for each product which reduces the writhes by 50, 16 and 84% respectively) were calculated, as well as the 95% confidence limits for the ED50. The oral acute toxicity study (LD50 determination) has been performed using 770 Swiss mice (half males and half females) weighing 18-22 g.
# A slight modification of the method described by Hendershot and Forshait J. Pharmacol. Exp. Ther. 125, 237 (1959) which employs as nociceptive agent a 0.02% hydroalcoholic solution of 2-phenyl 1-4 benzoquinone, was used. 0.2 ml Of this solution was administered by the i.p. route at a constant temperature of 37° C. The administration of this substance produced in the animals abdominal writhes which were easy to count. The animals used were female Swiss mice of weight 20 + 2 g. […] The value of ED50 was calculated according to the method of Litchfield and Wilcoxon J. Pharmacol. Exp. Ther. 99, 96 (1949).
structure (smiles),measurement,value
"CC(C)Cc1ccc(C(C)C(=O)O)cc1 (stereo not shown) [2(4-isobutylphenyl) propionic acid, reference compound]",ED50,4.21 mg/kg
